Laboratory results published in ChEMBL document CHEMBL1201862, “PubChem BioAssay data set” (2004).
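Growth conditions: 96-well plates. Treatment: test compound, 48 hours, 5 concentrations. Analysis: linear interpolation between bracketing concentrations; unreached endpoints set to highest concentration. Abbreviation: GI50, concentration required for 50% inhibition of growth.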 Active and inactive are the calls of the source. Rule as the data show it: active = GI50 up to about 1.1 µM and inactive = higher.

Experiments:
Test in all cases: NCI tumour cell line growth inhibition, 48 h
SW-620 = test system: SW-620
DU-145 = test system: DU-145
IGROV-1 = test system: IGROV-1
SNB-75 = test system: SNB-75
SN12C = test system: SN12C
MCF7 = test system: MCF7
T47D = test system: T47D
MDA-N = test system: MDA-N
TK-10 = test system: TK-10
NCI-H522 = test system: NCI-H522
OVCAR-5 = test system: OVCAR-5
EKVX = test system: EKVX
RXF 393 = test system: RXF 393
HCC 2998 = test system: HCC 2998
KM12 = test system: KM12
M14 = test system: M14
SK-MEL-28 = test system: SK-MEL-28
U-251 = test system: U-251
OVCAR-3 = test system: OVCAR-3
SK-OV-3 = test system: SK-OV-3

Measured: GI50

O=C1OC(C2Cc3ccc4ccccc4c3C2=O)c2ccccc21 (centres undefined)
inactive: SW-620 37.8 µM | DU-145 > 100 µM | IGROV-1 39.4 µM | SNB-75 32.3 µM | SN12C 93.5 µM | MCF7 42.8 µM | T47D 63 µM | MDA-N 57.5 µM | TK-10 60 µM | NCI-H522 36.9 µM | OVCAR-5 > 100 µM | EKVX 29.6 µM | RXF 393 17.4 µM | HCC 2998 55.5 µM | KM12 28.3 µM | M14 92.9 µM | SK-MEL-28 55.5 µM | U-251 32.7 µM | OVCAR-3 30.5 µM

CCC(c1c[nH]c2ccc(Br)cc12)c1c[nH]c2ccc(Br)cc12
inactive: SW-620 3.94 µM | DU-145 2.88 µM | IGROV-1 4.41 µM | SN12C 3.7 µM | MCF7 3.98 µM | T47D 2.3 µM | SK-OV-3 11.9 µM | MDA-N 4.33 µM | TK-10 10.9 µM | NCI-H522 4.44 µM | OVCAR-5 3.78 µM | EKVX 5.14 µM | RXF 393 2.32 µM | HCC 2998 2.19 µM | KM12 1.97 µM | M14 3.22 µM | SK-MEL-28 11.5 µM | U-251 3.72 µM | OVCAR-3 3.96 µM

CCOC(=O)c1ccc2c(=O)n3c(C(=O)OCC)ccc3c(=O)n12
inactive: SW-620 > 100 µM | DU-145 > 100 µM | IGROV-1 > 100 µM | SNB-75 44.5 µM | SN12C > 100 µM | MCF7 > 100 µM | T47D > 100 µM | SK-OV-3 68.2 µM | MDA-N > 100 µM | TK-10 > 100 µM | NCI-H522 60.7 µM | OVCAR-5 > 100 µM | EKVX > 100 µM | RXF 393 > 100 µM | HCC 2998 > 100 µM | KM12 > 100 µM | M14 > 100 µM | SK-MEL-28 > 100 µM | U-251 > 100 µM | OVCAR-3 > 100 µM

CCOC(=O)/C=C/C1(CCOC(C)=O)CCCCC1
inactive: SW-620 > 10 µM | DU-145 > 10 µM | IGROV-1 > 10 µM | SNB-75 > 10 µM | SN12C > 10 µM | MCF7 > 10 µM | T47D > 10 µM | SK-OV-3 > 10 µM | MDA-N > 10 µM | TK-10 > 10 µM | NCI-H522 > 10 µM | OVCAR-5 > 10 µM | EKVX > 10 µM | RXF 393 > 10 µM | HCC 2998 > 10 µM | KM12 > 10 µM | M14 > 10 µM | SK-MEL-28 > 10 µM | U-251 > 10 µM | OVCAR-3 > 10 µM

CCOP(=O)(C/C=C/Cn1ncc(=O)[nH]c1=O)OCC
inactive: SW-620 > 100 µM | DU-145 > 100 µM | IGROV-1 > 100 µM | SNB-75 > 100 µM | SN12C > 100 µM | MCF7 > 100 µM | T47D > 100 µM | MDA-N > 100 µM | TK-10 > 100 µM | NCI-H522 > 100 µM | OVCAR-5 > 100 µM | EKVX > 100 µM | RXF 393 > 100 µM | HCC 2998 > 100 µM | KM12 > 100 µM | M14 > 100 µM | SK-MEL-28 > 100 µM | U-251 > 100 µM | OVCAR-3 > 100 µM

OCc1cc2c(ccc3sc4ccc5sc6ccc7ncccc7c6c5c4c32)s1
inactive: SW-620 28.2 µM | DU-145 17.1 µM | IGROV-1 7.29 µM | SNB-75 3.89 µM | SN12C 11 µM | MCF7 17.8 µM | T47D 8.22 µM | SK-OV-3 18.4 µM | MDA-N 10.3 µM | TK-10 31.8 µM | NCI-H522 11 µM | OVCAR-5 15.3 µM | EKVX 12.4 µM | RXF 393 11.7 µM | KM12 6.47 µM | SK-MEL-28 27.2 µM | U-251 28.4 µM | OVCAR-3 16.9 µM

CCOC(=O)c1nc2cc(C(F)(F)F)ccc2nc1Oc1ccc(OC)cc1
inactive: SW-620 > 100 µM | DU-145 > 100 µM | IGROV-1 > 100 µM | SNB-75 > 100 µM | SN12C > 100 µM | MCF7 > 100 µM | T47D > 100 µM | MDA-N > 100 µM | TK-10 > 100 µM | NCI-H522 72.4 µM | OVCAR-5 > 100 µM | EKVX > 100 µM | RXF 393 50.9 µM | HCC 2998 > 100 µM | KM12 > 100 µM | M14 > 100 µM | SK-MEL-28 > 100 µM | U-251 > 100 µM | OVCAR-3 > 100 µM
